Bounds are passed on as bounds.

Data on five compounds can be found in patent US20100063047A1 (KALYPSYS, INC., priority 2008, published 2010).

Assay [1] has as its system tissue eosinophil peroxidase (EPO). The assay can be described thus: Allergic conjunctivitis in passively sensitized guinea pigs, conjunctival EPO activity. The format is in vivo. Also noted: key: a test compound was assigned a “+” if a 0.01% bid dose was statistically equivalent to dexamethasone with respect to reduction of EPO activity; a “−” was assigned if the compound was statistically inferior to dexamethasone and not different than vehicle. The note with it: reduction of conjunctival EPO activity 24 h after ovalbumin challenge, compared with 0.1% w/v dexamethasone, guinea pig; for BID activity: 0.01% bid topical dose (1 hour prior to and 8 hours after challenge); for QD activity: ≦0.1% qd topical dose (1 hour prior to challenge). The procedure:
(§1) Allergic Conjunctivitis in Passively Sensitized Guinea Pigs
Male Hartley VAF outbred guinea pigs were passively sensitized to ovalbumin by a single OD subconjunctival injection of undiluted guinea pig anti-ovalbumin antiserum 24 hours before OD topical challenge with 500 μg ovalbumin in saline. Control animals were injected with saline only and challenged with ovalbumin. To determine acute phase drug efficacy, 30 min after challenge animals were clinically scored by a masked observer for severity of signs of conjunctivitis based on a standard scale. Test compounds were administered topically 1 hour prior to challenge (QD protocol), or 1 hour prior to challenge and again 8 hours after challenge (BID protocol). Twenty-four hours after challenge, animals were euthanized and conjunctivae were harvested for determination of tissue eosinophil peroxidase (EPO) concentration as a marker of allergic inflammation. Homogenates of freshly collected tissues were prepared by shaking the tissues in 2 mL round-bottom tubes containing 0.5 mL of homogenization buffer (50 mM Tris HCl, pH 8.0, 6 mM KBr) and one 5-mm stainless steel bead on a Qiagen TissueLyser at 30 Hz for 5 min. Homogenates were frozen and thawed once, then centrifuged at 10,000 rpm for 5 min. EPO activity in supernatants was measured by reacting diluted homogenates with a solution of 6 mM o-phenylenediamine substrate and 8.8 mM H2O2 in homogenization buffer for 3 min. The reaction was stopped with 4M H2SO4 and absorbances were measured at 490 nm on a spectrophotometric plate reader. Total EPO in samples was calculated from a standard curve of recombinant human EPO in each assay. EPO activity was normalized to total protein concentration (Pierce BCA assay) in supernatants. Background EPO activity was determined from the unsensitized, antigen-challenged control group. Percent inhibition was calculated from the sensitized, antigen-challenged, vehicle-treated control group in each experiment. Ovalbumin-injected animals dosed topically with 0.1% w/v dexamethasone (dex) served as positive control. Groups were compared by ANOVA with Dunnett's or Tukey's post-hoc tests where appropriate with significance assigned at the 95% confidence level.
The table below summarizes the results.

Assay [2] addresses T1, human H1 (Homo sapiens, UniProt P35367).
T1 construct: host or cells: CHO-K1, also expressing mitochondrion-targeted aequorin
The assay can be described thus: In vitro histamine H1 receptor cell-based aequorin bioluminescence antagonist assay. The note with it: CHO-K1 cells expressing human H1 and aequorin; histamine at EC80; read-out: H1 Antagonist EC50. The procedure, abridged:
(§2)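 CHO-K1 cells stably expressing human H1 or H4 plus mitochondrial aequorin (H4 also with Gα16), loaded with 5 μM coelenterazine-h for 4 h at ~21 °C. Compounds preincubated 15 min at room temperature, then histamine at EC80 added.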

The target in assay [3] is T2, human H4 (Homo sapiens, UniProt Q9H3N8).
T2 construct: host or cells: CHO-K1, also expressing mitochondrion-targeted aequorin and human Gα16
T2 sequence (Q9H3N8 whole entry): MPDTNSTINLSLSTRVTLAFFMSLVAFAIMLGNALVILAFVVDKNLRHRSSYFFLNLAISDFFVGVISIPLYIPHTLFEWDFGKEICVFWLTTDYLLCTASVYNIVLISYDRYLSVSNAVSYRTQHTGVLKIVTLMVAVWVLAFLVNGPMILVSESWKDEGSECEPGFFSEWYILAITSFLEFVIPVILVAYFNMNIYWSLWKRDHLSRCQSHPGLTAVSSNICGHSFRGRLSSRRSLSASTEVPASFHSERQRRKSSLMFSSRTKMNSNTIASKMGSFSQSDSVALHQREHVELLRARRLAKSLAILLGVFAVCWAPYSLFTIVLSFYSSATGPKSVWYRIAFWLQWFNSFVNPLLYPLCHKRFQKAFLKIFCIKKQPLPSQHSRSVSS
As to the kind of experiment: In vitro histamine H4 receptor cell-based aequorin bioluminescence antagonist assay. Conditions: CHO-K1 cells expressing human H4, aequorin and Gα16; histamine at EC80. The procedure, abridged:
as §2

Assay [4] concerns tissue eosinophil peroxidase (EPO). The assay can be described thus: Allergic conjunctivitis in passively sensitized guinea pigs, conjunctival EPO activity. In kind it is in vivo. Also noted: key: a test compound was assigned a “+” if a ≦0.1% qd dose was statistically equivalent to dexamethasone with respect to reduction of EPO activity; a “−” was assigned if the compound was statistically inferior to dexamethasone and not different than vehicle. Conditions: ≦0.1% qd topical dose (1 hour prior to challenge); reduction of conjunctival EPO activity 24 h after ovalbumin challenge, compared with 0.1% w/v dexamethasone; guinea pig. The procedure:
as §1
Male Hartley VAF outbred guinea pigs were passively sensitized to ovalbumin by a single OD subconjunctival injection of undiluted guinea pig anti-ovalbumin antiserum 24 hours before OD topical challenge with 500 μg ovalbumin in saline. Control animals were injected with saline only and challenged with ovalbumin. To determine acute phase drug efficacy, 30 min after challenge animals were clinically scored by a masked observer for severity of signs of conjunctivitis based on a standard scale. Test compounds were administered topically 1 hour prior to challenge (QD protocol), or 1 hour prior to challenge and again 8 hours after challenge (BID protocol). […] EPO activity in supernatants was measured by reacting diluted homogenates with a solution of 6 mM o-phenylenediamine substrate and 8.8 mM H2O2 in homogenization buffer for 3 min. The reaction was stopped with 4M H2SO4 and absorbances were measured at 490 nm on a spectrophotometric plate reader. Total EPO in samples was calculated from a standard curve of recombinant human EPO in each assay. […] Background EPO activity was determined from the unsensitized, antigen-challenged control group. Percent inhibition was calculated from the sensitized, antigen-challenged, vehicle-treated control group in each experiment. […]

T1 sequence (P35367 whole entry): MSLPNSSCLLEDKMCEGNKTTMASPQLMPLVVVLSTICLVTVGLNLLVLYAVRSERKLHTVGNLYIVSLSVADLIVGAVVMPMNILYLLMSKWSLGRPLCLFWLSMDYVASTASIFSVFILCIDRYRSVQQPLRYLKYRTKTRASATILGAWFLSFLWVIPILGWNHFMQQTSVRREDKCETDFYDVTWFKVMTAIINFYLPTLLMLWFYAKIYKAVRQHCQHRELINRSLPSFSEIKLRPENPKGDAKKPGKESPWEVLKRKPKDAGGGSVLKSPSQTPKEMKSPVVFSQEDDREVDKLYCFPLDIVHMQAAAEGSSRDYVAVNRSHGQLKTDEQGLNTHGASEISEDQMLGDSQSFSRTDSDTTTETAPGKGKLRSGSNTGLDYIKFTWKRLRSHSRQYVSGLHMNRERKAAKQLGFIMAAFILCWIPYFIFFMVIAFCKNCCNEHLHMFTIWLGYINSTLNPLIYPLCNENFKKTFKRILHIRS

`Clc1ccc(CCNc2nccc3sccc23)cc1` [Example 27, N-(4-chlorophenethyl)thieno[3,2-c]pyridin-4-amine]: in assay [1], the BID activity result is recorded as “+” and the QD activity entry is “−”. The EC50 (commonly the concentration that produces a half-maximal response) in assay [2] is more than 10 µM. Moreover, the EC50 in assay [3] is more than 10 µM.

On to `Cc1csc2ncnc(NC3Cc4ccccc4C3)c12` [Example 29, N-(2,3-dihydro-1H-inden-2-yl)-5-methylthieno[2,3-d]pyrimidin-4-amine], for which the EC50 in assay [2] was more than 10 µM. Also, in assay [4], the QD activity result is listed as “+”.

Consider `Cc1sc2ncnc(NCCc3ccccc3Cl)c2c1C` [Example 43, N-[2-(2-chlorophenyl)ethyl]-5,6-dimethylthieno[2,3-d]pyrimidin-4-amine], for which, in assay [1], the BID activity entry was “−”. In addition, the concentration for a half-maximal effect (EC50) in assay [2] was more than 10 µM.

Regarding `Clc1ccc(CCNc2ncnc3sccc23)cc1` [Example 45, N-[2-(4-chlorophenyl)ethyl]thieno[2,3-d]pyrimidin-4-amine], in assay [1], the BID activity entry is listed as “+” and the QD activity result is given as “−”. In addition, the EC50 in assay [2] was more than 10 µM.

In the case of `Cc1csc2ncnc(NCc3ccccn3)c12` [Example 85, 5-methyl-N-(pyridin-2-ylmethyl)thieno[2,3-d]pyrimidin-4-amine], the 50% effective concentration (EC50) in assay [2] and in assay [3] was more than 10 µM throughout. The QD activity entry in assay [4] is on record as “+”.
